Results reported in US20120321621A1, “INHIBITION OF FcyR-MEDIATED PHAGOCYTOSIS WITH REDUCED IMMUNOGLOBULIN PREPARATIONS” (priority 2008, published 2012).

Key:
[1] = test system: FcγR-mediated phagocytosis of anti-D-sensitized R2R2 RBCs by monocyte-macrophages; experiment: Monocyte monolayer assay (MMA): inhibition of phagocytosis of anti-D-sensitized R2R2 RBCs; type: cell-based, human; details: for inhibition of phagocytosis by chemical alone after dialysis: after extensive dialysis
Description: Residual and phagocytosed RBCs were distinguished by relative differences in refracted light under phase-contrast microscopy.

[2] = test system: FcγR-mediated phagocytosis of anti-D-sensitized R2R2 RBCs by monocyte-macrophages; details: 10^−4M, MMA (Rampersad et al.); cited from earlier work

## O[C@H](CS)[C@H](O)CS (racemic) [DTT, Dithiothreitol]
[1]; Homo sapiens, Monocyte, free, undialyzed, 10^−2M, read-out: inhibition of phagocytosis by free chemical
  inhibition at 10000 µM: ~30%
[1]
  inhibition of phagocytosis by chemical alone after dialysis: no inhibition

## Cc1ccc(S(=O)(=O)CS)cc1 [p-toluenesulfonylmethyl mercaptan]
[2]
  inhibition of FcγR-mediated phagocytosis by chemical alone: approximately 70%
[1]
  inhibition of phagocytosis by chemical alone after dialysis: not able to inhibit phagocytosis

## C[CH2][Hg][S]c1ccccc1C(=O)[O-].[Na+] [thimerosal]
[1]
  inhibition of phagocytosis by chemical alone after dialysis: no longer inhibits phagocytosis
[1]; undialyzed, 10^−5 or 10^−3 mol per L
  inhibition of phagocytosis by undialyzed chemical alone: 100%
